Test results from ChEMBL document CHEMBL1157873, “Synthesis and biological activity of Delta-5,6-norcantharimides: importance of the 5,6-bridge” (Eur J Med Chem, 2010).
pIC50: −log10 of the molar value.

Assays:
[1] = Cytotoxicity against human BE(2)-C cells at 100 uM after 72 hrs by MTT assay; format: functional
DU-145 [2] = experiment: Cytotoxicity against human DU145 cells at 100 uM after 72 hrs by MTT assay; format: functional; settings: DU-145, 72 h
MCF7 [3] = experiment: Cytotoxicity against human MCF7 cells at 100 uM after 72 hrs by MTT assay; format: functional; settings: MCF7, 72 h
SW480 [4] = experiment: Cytotoxicity against human SW480 cells at 100 uM after 72 hrs by MTT assay; format: functional; settings: SW480, 72 h
A2780 [5] = experiment: Cytotoxicity against human A2780 cells at 100 uM after 72 hrs by MTT assay; format: functional; settings: A2780, 72 h
[6] = Cytotoxicity against human SJ-G2 cells at 100 uM after 72 hrs by MTT assay; format: functional; settings: SJ-G2, 72 h
HT-29 [7] = experiment: Cytotoxicity against human HT-29 cells at 100 uM after 72 hrs by MTT assay; format: functional; settings: HT-29, 72 h
A-431 [8] = experiment: Cytotoxicity against human A431 cells at 100 uM after 72 hrs by MTT assay; format: functional; settings: A-431, 72 h
NCI-H460 [9] = experiment: Cytotoxicity against human H460 cells at 100 uM after 72 hrs by MTT assay; format: functional; settings: NCI-H460, 72 h
[10] = Solubility of the compound; format: physicochemical
[11] = Inhibition of rabbit skeletal muscle protein phosphatase 1 assessed as free phosphate ion release after 60 mins by malachite green method; parameters: species or system Oryctolagus cuniculus
[12] = Inhibition of human red blood cells protein phosphatase 2A assessed as free phosphate ion release after 60 mins by malachite green method
[13] = Cytotoxicity against human SJ-G2 cells after 72 hrs by MTT assay; format: functional; settings: SJ-G2, 72 h
HT-29 [14] = experiment: Cytotoxicity against human HT-29 cells after 72 hrs by MTT assay; format: functional; settings: HT-29, 72 h
A2780 [15] = experiment: Cytotoxicity against human A2780 cells after 72 hrs by MTT assay; format: functional; settings: A2780, 72 h
MCF7 [16] = experiment: Cytotoxicity against human MCF7 cells after 72 hrs by MTT assay; format: functional; settings: MCF7, 72 h
DU-145 [17] = experiment: Cytotoxicity against human DU145 cells after 72 hrs by MTT assay; format: functional; settings: DU-145, 72 h
NCI-H460 [18] = experiment: Cytotoxicity against human H460 cells after 72 hrs by MTT assay; format: functional; settings: NCI-H460, 72 h
A-431 [19] = experiment: Cytotoxicity against human A431 cells after 72 hrs by MTT assay; format: functional; settings: A-431, 72 h
[20] = Cytotoxicity against human BE(2)-C cells after 72 hrs by MTT assay; format: functional
SW480 [21] = experiment: Cytotoxicity against human SW480 cells after 72 hrs by MTT assay; format: functional; settings: SW480, 72 h

SMILES | inhibition at 100 µM [1] [%] | inhibition at 100 µM (DU-145 [2]) [%] | inhibition at 100 µM (MCF7 [3]) [%] | inhibition at 100 µM (SW480 [4]) [%] | inhibition at 100 µM (A2780 [5]) [%] | inhibition at 100 µM [6] [%] | inhibition at 100 µM (HT-29 [7]) [%] | inhibition at 100 µM (A-431 [8]) [%] | inhibition at 100 µM (NCI-H460 [9]) [%] | further results
O=C(O)[C@H](Cc1c[nH]cn1)N1C(=O)[C@H]2CNC[C@H]2C1=O | < 10 | < 10 | < 10 | < 10 | < 10 | < 10 | 10 | < 10 | < 10 | 
CCOC(=O)C[C@@H](C(=O)OCC)N1C(=O)[C@H]2CNC[C@H]2C1=O | < 10 | < 10 | 15 | < 10 | 14 | < 10 | 15 | < 10 | < 10 | 
NCCC[C@@H](C(=O)O)N1C(=O)[C@H]2CNC[C@H]2C1=O | 23 | < 10 | 22 | 11 | 11 | < 10 | 12 | 16 | 16 | 
O=C1[C@H]2CNC[C@H]2C(=O)N1N1CCOCC1 |  |  |  |  |  |  |  |  |  | solubility [10]: Insoluble
O=C1[C@H]2CNC[C@H]2C(=O)N1CCN1CCOCC1 | < 10 | < 10 | 11 | < 10 | < 10 | < 10 | < 10 | 10 | < 10 | 
CN(C)CCNC(=O)[C@@H]1CNC[C@@H]1C(=O)O |  |  |  |  |  |  |  |  |  | solubility [10]: Insoluble
CC(CO)N1C(=O)[C@H]2CNC[C@H]2C1=O (stereo partly specified) | < 10 | < 10 | < 10 | < 10 | < 10 | < 10 | 15 | < 10 | < 10 | 
CCC(CO)N1C(=O)[C@H]2CNC[C@H]2C1=O (stereo partly specified) | < 10 | < 10 | < 10 | < 10 | < 10 | < 10 | < 10 | < 10 | < 10 | 
O=C(O)[C@H](Cc1c[nH]cn1)N1C(=O)[C@H]2CSC[C@H]2C1=O | 14 | < 10 | 15 | < 10 | < 10 | < 10 | 10 | < 10 | 10 | 
NCCCC[C@@H](C(=O)O)N1C(=O)[C@H]2CSC[C@H]2C1=O | 22 | < 10 | 30 | < 10 | 16 | 10 | 22 | 19 | 19 | 
CCC(CO)N1C(=O)[C@H]2CSC[C@H]2C1=O (stereo partly specified) | < 10 | < 10 | < 10 | < 10 | < 10 | < 10 | < 10 | < 10 | < 10 | 
CC(CO)N1C(=O)[C@H]2CN(Cc3ccccc3)C[C@H]2C1=O (stereo partly specified) | 10 | 10 | 22 | 12 | 21 | 18 | 15 | < 10 | 14 | 
CCC(CO)N1C(=O)[C@H]2CN(Cc3ccccc3)C[C@H]2C1=O (stereo partly specified) | < 10 | < 10 | < 10 | 15 | 15 | < 10 | 14 | < 10 | < 10 | 
O=C1[C@H]2CN(Cc3ccccc3)C[C@H]2C(=O)N1CCN1CCOCC1 | 12 | 25 | 51 | 49 | 33 | 25 | 45 | 11 | < 10 | 
CCCN1C(=O)[C@H]2CNC[C@H]2C1=O |  |  |  |  |  |  |  |  |  | solubility [10]: Insoluble
O=C1[C@H]2COC[C@H]2C(=O)N1CCN1CCOCC1 | < 10 | < 10 | < 10 | < 10 | 13 | < 10 | < 10 | < 10 | < 10 | 
O=C(O)C[C@@H](C(=O)O)N1C(=O)[C@H]2COC[C@H]2C1=O | < 10 | < 10 | 13 | < 10 | 15 | < 10 | 14 | < 10 | < 10 | 
O=C1OC(=O)[C@@H]2CSC[C@H]12 |  |  |  |  |  |  |  |  |  | pIC50 [11]: < 4.00; pIC50 [12]: < 4.00; solubility [10]: Insoluble
O=C(O)[C@H](Cc1c[nH]cn1)N1C(=O)[C@H]2COC[C@H]2C1=O | 22 | 11 | 20 | 18 | 23 | 15 | 26 | 26 | 21 | 
CCOC(=O)C[C@@H](C(=O)OCC)N1C(=O)[C@H]2COC[C@H]2C1=O | < 10 | < 10 | 16 | < 10 | 15 | < 10 | 16 | < 10 | < 10 | 
CCOC(=O)CC[C@@H](C(=O)OCC)N1C(=O)[C@H]2COC[C@H]2C1=O | < 10 | 20 | 28 | 34 | 29 | < 10 | 30 | 13 | 13 | 
NCCC[C@@H](C(=O)O)N1C(=O)[C@H]2COC[C@H]2C1=O | < 10 | < 10 | < 10 | < 10 | < 10 | 32 | < 10 | 10 | < 10 | 
NCCCC[C@@H](C(=O)O)N1C(=O)[C@H]2COC[C@H]2C1=O | 32 | 17 | 37 | 30 | 31 | 23 | 30 | 35 | 27 | 
NCC[C@@H](C(=O)O)N1C(=O)[C@H]2CNC[C@H]2C1=O | < 10 | < 10 | < 10 | < 10 | < 10 | < 10 | < 10 | < 10 | < 10 | 
CC(CO)N1C(=O)[C@H]2COC[C@H]2C1=O (stereo partly specified) | < 10 | < 10 | < 10 | < 10 | 13 | < 10 | < 10 | < 10 | 10 | 
CCC(CO)N1C(=O)[C@H]2COC[C@H]2C1=O (stereo partly specified) | < 10 | < 10 | < 10 | < 10 | 13 | < 10 | < 10 | < 10 | < 10 | 
O=C1OC(=O)C2C3CCC(O3)C12 (stereo unspecified) |  |  |  |  |  |  |  |  |  | GI50 [13]: 23 µM; GI50 (HT-29 [14]): 57 µM; GI50 (A2780 [15]): 38 µM; pIC50 [11]: 5.11; pIC50 [12]: 5.57; GI50 (MCF7 [16]): 68 µM; GI50 (DU-145 [17]): 28 µM; GI50 (NCI-H460 [18]): 45 µM; GI50 (A-431 [19]): 31 µM; GI50 [20]: 43 µM; GI50 (SW480 [21]): 44 µM
C[C@@]12C(=O)OC(=O)[C@]1(C)[C@H]1CC[C@@H]2O1 [CANTHARIDIN] |  |  |  |  |  |  |  |  |  | GI50 [13]: 1.7 µM; GI50 (HT-29 [14]): 3.2 µM; GI50 (A2780 [15]): 4.4 µM; pIC50 [11]: 5.22; pIC50 [12]: 6.05; GI50 (MCF7 [16]): 7.5 µM; GI50 (DU-145 [17]): 2.1 µM; GI50 (NCI-H460 [18]): 3.3 µM; GI50 (A-431 [19]): 2.9 µM; GI50 [20]: 3.7 µM; GI50 (SW480 [21]): 4.5 µM
